Measured values: patent US20110243854A1, “Methods and systems for identifying modulators of longevity” (The Regents of the University of California, priority 2007, published 2011)
Entries after “also recorded” stand apart in the source; their conditions may differ.

Legend:
[1] = system: flies with reduced life span due to Cu/ZnSOD and MnSOD deficiency; conditions: Cu/ZnSOD and MnSOD deficient flies; cited from earlier work
wild-type flies = conditions: cited from earlier work
NF1^P1/P2 mutants = assay: Locomotive (up-climbing) recovery after heat stress, antioxidant-fed NF1 mutants; type: in vivo, Drosophila melanogaster; conditions: 20 min 37° C. heat stress
Description: Locomotive assays were performed on 3- to 4-d-old flies. Flies were placed in 90 mm×20 mm vertical tubes containing a small quantity of cornmeal food at the bottom with a line drawn horizontally 10 mm from the base. Every 5 min, the vials were tapped until the flies were at the bottom of the vials. Then, flies were given 15 s to climb (up-climbing behavior) toward the top of the vial, and the numbers of flies above the 10 mm line were recorded. The locomotive index is the percentage of flies that climbed up after 15 s. After 30 min of baseline recording at 22° C., flies were subjected to a brief 20-min heat treatment at 37° C. and were then returned to 22° C. for recovery. The locomotive index was then plotted against time over the course of the experiment to determine the recovery time (τ).
(§1) MnTBAP (Oxis) and MnTDEIP (Aeolus Pharmaceuticals) were dissolved in PBS (Mediatech) before further dilution with cornmeal food to make desired concentration. Red food dye (six drops per 500 ml food) was added to the food to ensure homogeneity.

NF1^P1/P2 flies = assay: Longevity assay, NF1 mutant flies fed catalytic antioxidants; type: in vivo, Drosophila melanogaster; conditions: for increase in survivorship: NF1^P1/P2 flies fed the antioxidant; for effect on life span of NF1 mutant flies (in words): feeding 10 μM, NF1^P1/P2 males and females
Description: Life spans were determined at 25° C. and 50% humidity with a 12-h light/dark cycle. Male and female flies were collected under brief CO2 anesthesia 2 to 3 d after eclosion, allowing time for mating. The number of deceased flies was recorded every 2 to 3 d, when flies were transferred to fresh cornmeal agar medium. Both Statview 5.0 and Prism GraphPad software were used for survival data and mortality curves analysis. Survival data were analyzed by Kaplan-Meier analysis in Statview 5.0. The log-rank (Mantel-Cox) test results are presented. Censored data were recorded and analyzed with GraphPad software.
as §1

[2] = system: mitochondrial ROS production; conditions: cited from earlier work
w^1118 flies = assay: Longevity assay, w^1118 flies fed cAMP analogs; type: in vivo, Drosophila melanogaster
Description: Male and female flies were collected under brief CO2 anesthesia 2 to 3 d after eclosion, allowing time for mating. The number of deceased flies was recorded every 2 to 3 d, when flies were transferred to fresh cornmeal agar medium. Both Statview 5.0 and Prism GraphPad software were used for survival data and mortality curves analysis. Survival data were analyzed by Kaplan-Meier analysis in Statview 5.0. The log-rank (Mantel-Cox) test results are presented. […] The stock solutions were subsequently diluted into food to make the specific concentrations of 1 μM and 10 μM. Red food dye (six drops per 500 ml food) was added to the supplemented food to insure homogeneity.

| Compound | effect on life span (in words) [1] | effect on life span (in words) (wild-type flies) | recovery of locomotive performance after heat stress (in words) (NF1^P1/P2 mutants) | increase in survivorship (NF1^P1/P2 flies) | effect on life span of NF1 mutant flies (in words) (NF1^P1/P2 flies) | also measured |
| --- | --- | --- | --- | --- | --- | --- |
| [Cl-].[Mn+3].[O-]c1ccccc1C=NCCN=Cc1ccccc1[O-] [EUK-8, manganese N,N′-bis(salicyidene) ethylenediamine chloride] | partially restored normal life span | shortened their life spans |  |  |  |  |
| COC1=C(OC)C(=O)C(CCCCCCCCCC[P+](c2ccccc2)(c2ccccc2)c2ccccc2)=C(C)C1=O [MitoQ] | partially restored normal life span | shortened their life spans |  |  |  |  |
| O=C(O)c1ccc(-c2c3nc(c(-c4ccc(C(=O)O)cc4)c4ccc([n-]4)c(-c4ccc(C(=O)O)cc4)c4nc(c(-c5ccc(C(=O)O)cc5)c5ccc2[n-]5)C=C4)C=C3)cc1.[Mn+3] [MnTBAP, Mn(III)tetrakis(4-benzoic acid) porphyrin] |  |  | enhanced the recovery rate of locomotive performance; also recorded: rescued delayed heat stress recovery time | approximately 50% | restores normal life span; also recorded: extended | mitochondrial ROS production and oxidative damage (in words) [2]: reduce mitochondrial ROS production and oxidative damage |
| CCCC(=O)Nc1ncnc2c1ncn2[C@@H]1O[C@@H]2COP(=O)(O)O[C@H]2[C@H]1OC(=O)CCC [db-cAMP, dibutyryl-cAMP] |  |  |  |  |  | increase in median life span (w^1118 flies; adult males fed 1 μM or 10 μM): 30%; increase in life span (w^1118 flies; females fed 1 μM): 60%; increase in life span (w^1118 flies; females fed 10 μM): > 100%; effect on life span of w^1118 flies (in words) (w^1118 flies; male and female w^1118 flies, 1 μM and 10 μM in food): extends life spans |
| tetrakis(1,3-diethyl imidazolium-2-yl) meso-substituted manganoporphyrin [MnTDEIP] |  |  | enhanced the recovery rate of locomotive performance; also recorded: rescued delayed heat stress recovery time | approximately 50% | extended |  |
